Data from ChEMBL document CHEMBL4004838, “Design and synthesis of novel phenyl -1, 4-beta-carboline-hybrid molecules as potential anticancer agents” (Eur J Med Chem, 2017).
Values after ≈ are worked out from the molar mass of the structure shown.

Legend:
Albumin [1] = biological target: T1, Albumin (Bos taurus, UniProt P02769); test: Binding affinity to Bovine serum albumin assessed as fluorescence quenching at […] by fluorescence spectroscopic assay; format: ADME; settings: cattle, isolated protein
HT-29 = test: Growth inhibition of human HT-29 cells incubated for 48 hrs by sulforhodamine B assay; format: functional; settings: HT-29, 48 h
SNB-75 = test: Growth inhibition of human SNB75 cells incubated for 48 hrs by sulforhodamine B assay; format: functional; settings: SNB-75, 48 h
OVCAR-4 [2] = test: Growth inhibition of human OVCAR4 cells incubated for 48 hrs by sulforhodamine B assay; format: functional; settings: OVCAR-4, 48 h
ACHN [3] = test: Growth inhibition of human ACHN cells incubated for 48 hrs by sulforhodamine B assay; format: functional
SN12C [4] = test: Growth inhibition of human SN12C cells incubated for 48 hrs by sulforhodamine B assay; format: functional
SF-539 = test: Growth inhibition of human SF539 cells assessed as cell growth at 0.01 uM incubated for 48 hrs by sulforhodamine B assay relative to control; format: functional; settings: SF-539, 48 h, read-out: Activity
MDA-MB-435 = test: Growth inhibition of human MDA-MB-435 cells assessed as cell growth at 0.01 uM incubated for 48 hrs by sulforhodamine B assay relative to control; format: functional; settings: MDA-MB-435, 48 h, read-out: Activity
SN12C [5] = test: Growth inhibition of human SN12C cells assessed as cell growth at 0.01 uM incubated for 48 hrs by sulforhodamine B assay relative to control; format: functional; settings: read-out: Activity
PC-3 = test: Growth inhibition of human PC3 cells assessed as cell growth at 0.01 uM incubated for 48 hrs by sulforhodamine B assay relative to control; format: functional; settings: PC-3, 48 h, read-out: Activity
ACHN [6] = test: Growth inhibition of human ACHN cells assessed as cell growth at 0.1 uM incubated for 48 hrs by sulforhodamine B assay relative to control; format: functional; settings: read-out: Activity
SN12C [7] = test: Growth inhibition of human SN12C cells assessed as cell growth at 0.1 uM incubated for 48 hrs by sulforhodamine B assay relative to control; format: functional; settings: read-out: Activity
RPMI-8226 = test: Growth inhibition of human RPMI8226 cells assessed as cell growth at 1 uM incubated for 48 hrs by sulforhodamine B assay relative to control; format: functional; settings: RPMI-8226, 48 h, read-out: Activity
EKVX = test: Growth inhibition of human EKVX cells assessed as cell growth at 1 uM incubated for 48 hrs by sulforhodamine B assay relative to control; format: functional; settings: read-out: Activity
HCT-15 = test: Growth inhibition of human HCT15 cells assessed as cell growth at 1 uM incubated for 48 hrs by sulforhodamine B assay relative to control; format: functional; settings: HCT-15, 48 h, read-out: Activity
SW-620 = test: Growth inhibition of human SW620 cells assessed as cell growth at 1 uM incubated for 48 hrs by sulforhodamine B assay relative to control; format: functional; settings: SW-620, 48 h, read-out: Activity
SK-MEL-2 = test: Growth inhibition of human SK-MEL-2 cells assessed as cell growth at 1 uM incubated for 48 hrs by sulforhodamine B assay relative to control; format: functional; settings: SK-MEL-2, 48 h, read-out: Activity
SN12C [8] = test: Growth inhibition of human SN12C cells assessed as cell growth at 1 uM incubated for 48 hrs by sulforhodamine B assay relative to control; format: functional; settings: read-out: Activity
OVCAR-4 [9] = test: Growth inhibition of human OVCAR4 cells assessed as cell growth at 100 uM incubated for 48 hrs by sulforhodamine B assay relative to control; format: functional; settings: OVCAR-4, 48 h, read-out: Activity
SN12C [10] = test: Growth inhibition of human SN12C cells assessed as cell growth at 100 uM incubated for 48 hrs by sulforhodamine B assay relative to control; format: functional; settings: read-out: Activity
DU-145 = test: Growth inhibition of human DU145 cells assessed as cell growth at 100 uM incubated for 48 hrs by sulforhodamine B assay relative to control; format: functional; settings: DU-145, 48 h, read-out: Activity
MCF7 = test: Cytotoxicity against human MCF7 cells assessed as cell viability after 72 hrs by MTT assay; format: functional, cell-based; settings: MCF7, 72 h
LNCaP = test: Cytotoxicity against human LNCAP cells assessed as cell viability after 72 hrs by MTT assay; format: functional, cell-based
HepG2 = test: Cytotoxicity against human HepG2 cells assessed as cell viability after 72 hrs by MTT assay; format: functional, cell-based; settings: HepG2, 72 h
OVCAR-8 [11] = test: Growth inhibition of human OVCAR8 cells incubated for 48 hrs by sulforhodamine B assay; format: functional; settings: OVCAR-8, 48 h
NCI/ADR-RES = test: Growth inhibition of human NCI-ADR-RES cells assessed as cell growth at 0.01 uM incubated for 48 hrs by sulforhodamine B assay relative to control; format: functional; settings: read-out: Activity
OVCAR-8 [12] = test: Growth inhibition of human OVCAR8 cells assessed as cell growth at 0.1 uM incubated for 48 hrs by sulforhodamine B assay relative to control; format: functional; settings: OVCAR-8, 48 h, read-out: Activity
OVCAR-8 [13] = test: Growth inhibition of human OVCAR8 cells assessed as cell growth at 1 uM incubated for 48 hrs by sulforhodamine B assay relative to control; format: functional; settings: OVCAR-8, 48 h, read-out: Activity
OVCAR-8 [14] = test: Growth inhibition of human OVCAR8 cells assessed as cell growth at 100 uM incubated for 48 hrs by sulforhodamine B assay relative to control; format: functional; settings: OVCAR-8, 48 h, read-out: Activity
Albumin [15] = biological target: T1, Albumin; test: Binding affinity to Bovine serum albumin assessed as fluorescence quenching at 0.1 to 1 uM at […] by fluorescence spectroscopic assay; format: ADME; settings: cattle, isolated protein
[16] = read-out: LC50 (the source's name)
[17] = read-out: pLC50 (the source's name) (converted)

T1 sequence (P02769 whole entry): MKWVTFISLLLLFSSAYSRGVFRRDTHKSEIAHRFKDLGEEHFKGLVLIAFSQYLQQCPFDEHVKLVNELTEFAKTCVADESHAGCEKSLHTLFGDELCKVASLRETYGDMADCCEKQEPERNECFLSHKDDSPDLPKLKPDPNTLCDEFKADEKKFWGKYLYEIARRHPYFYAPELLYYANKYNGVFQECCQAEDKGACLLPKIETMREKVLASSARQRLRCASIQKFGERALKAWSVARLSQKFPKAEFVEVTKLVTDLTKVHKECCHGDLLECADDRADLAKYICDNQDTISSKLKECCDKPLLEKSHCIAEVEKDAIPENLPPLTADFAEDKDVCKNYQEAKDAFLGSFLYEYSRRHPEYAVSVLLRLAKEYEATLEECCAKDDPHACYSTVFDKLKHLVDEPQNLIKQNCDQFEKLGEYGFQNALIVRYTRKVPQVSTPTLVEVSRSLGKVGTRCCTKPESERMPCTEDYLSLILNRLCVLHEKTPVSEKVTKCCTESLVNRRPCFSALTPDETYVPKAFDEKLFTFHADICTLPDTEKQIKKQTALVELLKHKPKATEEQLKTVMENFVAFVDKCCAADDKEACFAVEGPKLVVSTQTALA

c1ccc2c3c([nH]c2c1)C(c1ccc(C2NCCc4c2[nH]c2ccccc42)cc1)NCC3 (racemic)
Activity (Albumin [1]): Dose-dependent effect
GI50 (HT-29; read-out: GI50): 2800 nM
CC50 (HT-29; [16]): 3.92 µM
TGI (HT-29; read-out: TGI): 7.35 µM
GI50 (HT-29; read-out: pGI50 (converted)): 282 nM
CC50 (HT-29; [17]): 3.89 µM
TGI (HT-29; read-out: pTGI (converted)): 0.741 µM
CC50 (SNB-75; [16]): 4.59 µM
GI50 (SNB-75; read-out: pGI50 (converted)): 692 nM
CC50 (SNB-75; [17]): 4.57 µM
TGI (SNB-75; read-out: pTGI (converted)): 2.09 µM
GI50 (OVCAR-4 [2]; read-out: GI50): 1140 nM
CC50 (OVCAR-4 [2]; [16]): 5.61 µM
TGI (OVCAR-4 [2]; read-out: TGI): 2.53 µM
GI50 (OVCAR-4 [2]; read-out: pGI50 (converted)): 1150 nM
CC50 (OVCAR-4 [2]; [17]): 5.62 µM
TGI (OVCAR-4 [2]; read-out: pTGI (converted)): 2.51 µM
CC50 (ACHN [3]; [16]): 4.58 µM
GI50 (ACHN [3]; read-out: pGI50 (converted)): 708 nM
CC50 (ACHN [3]; [17]): 4.57 µM
TGI (ACHN [3]; read-out: pTGI (converted)): 2 µM
GI50 (SN12C [4]; read-out: GI50): 1470 nM
CC50 (SN12C [4]; [16]): 6.31 µM
TGI (SN12C [4]; read-out: TGI): 3.05 µM
GI50 (SN12C [4]; read-out: pGI50 (converted)): 1480 nM
CC50 (SN12C [4]; [17]): 6.31 µM
TGI (SN12C [4]; read-out: pTGI (converted)): 3.02 µM
growth at 0.01 µM (SF-539): 93%
growth at 0.01 µM (MDA-MB-435): 95%
growth at 0.01 µM (SN12C [5]): 96%
growth at 0.01 µM (PC-3): 96%
growth at 0.1 µM (ACHN [6]): 97%
growth at 0.1 µM (SN12C [7]): 95%
growth at 1 µM (RPMI-8226): 2%
growth at 1 µM (EKVX): 70%
growth at 1 µM (HCT-15): 24%
growth at 1 µM (SW-620): 86%
growth at 1 µM (SK-MEL-2): 86%
growth at 1 µM (SN12C [8]): 77%
growth at 100 µM (OVCAR-4 [9]): 93%
growth at 100 µM (SN12C [10]): -93%
growth at 100 µM (DU-145): -94%
IC50 (MCF7): 3.34 µg/mL (≈ 7.98 µM)
IC50 (LNCaP): 5.52 µg/mL (≈ 13.2 µM)
IC50 (HepG2): 4.43 µg/mL (≈ 10.6 µM)

c1ccc2[nH]c(-c3ccc(-c4nccc5c4[nH]c4ccccc45)cc3)nc2c1
GI50 (HT-29; read-out: GI50): 2190 nM
CC50 (HT-29; [16]): 8.97 µM
TGI (HT-29; read-out: TGI): 4.43 µM
GI50 (HT-29; read-out: pGI50 (converted)): 2190 nM
CC50 (HT-29; [17]): 8.91 µM
TGI (HT-29; read-out: pTGI (converted)): 4.47 µM
GI50 (SNB-75; read-out: GI50): 1570 nM
CC50 (SNB-75; [16]): 1.19 µM
TGI (SNB-75; read-out: TGI): 4.08 µM
GI50 (SNB-75; read-out: pGI50 (converted)): 1580 nM
CC50 (SNB-75; [17]): 12 µM
TGI (SNB-75; read-out: pTGI (converted)): 4.07 µM
GI50 (OVCAR-4 [2]; read-out: GI50): 2270 nM
TGI (OVCAR-4 [2]; read-out: TGI): 7.75 µM
GI50 (OVCAR-4 [2]; read-out: pGI50 (converted)): 2290 nM
CC50 (OVCAR-4 [2]; [17]): > 100 µM
TGI (OVCAR-4 [2]; read-out: pTGI (converted)): 7.76 µM
GI50 (OVCAR-8 [11]): 3.31 µM
CC50 (OVCAR-8 [11]; [16]): > 1 µM
CC50 (OVCAR-8 [11]; read-out: pLC50 (converted)): > 100 µM
TGI (OVCAR-8 [11]; read-out: pTGI (converted)): 13.5 µM
GI50 (ACHN [3]; read-out: GI50): 2050 nM
CC50 (ACHN [3]; [16]): 8.46 µM
TGI (ACHN [3]; read-out: TGI): 4.17 µM
GI50 (ACHN [3]; read-out: pGI50 (converted)): 2040 nM
CC50 (ACHN [3]; [17]): 8.51 µM
TGI (ACHN [3]; read-out: pTGI (converted)): 4.17 µM
growth at 0.01 µM (SF-539): 96%
growth at 0.01 µM (MDA-MB-435): 93%
growth at 0.01 µM (NCI/ADR-RES): 99%
growth at 0.01 µM (PC-3): 98%
growth at 0.1 µM (OVCAR-8 [12]): 103%
growth at 0.1 µM (ACHN [6]): 98%
growth at 1 µM (RPMI-8226): 106%
growth at 1 µM (EKVX): 93%
growth at 1 µM (HCT-15): 93%
growth at 1 µM (SW-620): 96%
growth at 1 µM (SK-MEL-2): 94%
growth at 1 µM (OVCAR-8 [13]): 99%
growth at 100 µM (OVCAR-4 [9]): 42%
growth at 100 µM (OVCAR-8 [14]): 28%
growth at 100 µM (DU-145): 72%
Activity (Albumin [15]): Active
